Consider three compounds from patent publication US10214508B2, “Nitrogen-containing heterocyclic compound” (Takeda Pharmaceutical Company Limited, priority 2014, dated 2019).

Assay [1] concerns the target T1, human M1 receptor (hCHRM1) (Homo sapiens, UniProt P11229).
T1 construct: expressed in transfected cells
T1 sequence (P11229 1-460): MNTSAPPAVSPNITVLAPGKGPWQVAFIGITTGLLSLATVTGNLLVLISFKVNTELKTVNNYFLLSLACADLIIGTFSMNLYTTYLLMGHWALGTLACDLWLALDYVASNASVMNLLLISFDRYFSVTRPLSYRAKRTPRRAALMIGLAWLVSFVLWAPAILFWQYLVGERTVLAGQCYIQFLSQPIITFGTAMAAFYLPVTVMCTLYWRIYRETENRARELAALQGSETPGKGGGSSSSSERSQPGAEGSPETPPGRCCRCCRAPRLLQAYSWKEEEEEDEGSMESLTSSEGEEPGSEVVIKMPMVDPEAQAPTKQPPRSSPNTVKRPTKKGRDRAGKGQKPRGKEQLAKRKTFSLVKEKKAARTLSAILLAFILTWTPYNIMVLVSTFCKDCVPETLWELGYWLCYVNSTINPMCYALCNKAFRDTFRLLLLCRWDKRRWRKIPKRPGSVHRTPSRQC
In words: Measurement of M1 receptor positive allosteric modulator (M1PAM) activity, calcium fluorescence (FLIPRtetra). The format is cell-based. The note with it: 10 μM test compound with acetylcholine at EC20 (final 0.6-0.8 nM); 100% = acetylcholine 1 μM, 0% = DMSO; CHO-K1 cells expressing hCHRM1. In outline:
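CHO-K1 cells stably expressing hM1 were Fluo-4-loaded; compound added with acetylcholine at EC20 (0.6-0.8 nM final), calcium fluorescence read 1 min on FLIPRtetra. Activity scaled between DMSO (0%) and 1 μM acetylcholine (100%); inflection point of concentration–response reported as IP.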

For assay [2], the system named is Scopolamine-induced memory deficits models. Kind of assay: Novel object recognition test. The format is in vivo, male Long-Evans rats. The conditions noted are these: 2 hours before acquisition trial, scopolamine 0.1 mg/kg s.c., mean±standard error. As for the experimental part: Novel Object Recognition Test Novel object recognition test is comprised of two trials called the acquisition and the retention trials. Scopolamine-induced memory deficits models were used for the test, and animals used were male Long-Evans rats (7-week-old). On the day before the test, for acclimation, the rats were allowed to freely move about the test box (40×40×50 cm) for 10 minutes. On the test day, the rats were acclimated to the test room for about for 1 hr prior to the test. The test compounds were orally administered to the rats in a single dose 2 hours before the acquisition trial. For induction of learning and memory deficits, scopolamine (0.1 mg/kg) was subcutaneously administered into the rats for 30 min before the acquisition trial. For the acquisition trial, two identical objects (A1, A2) were placed in the test box. The rats were put in the test box for 3 min, and the duration exploring each object was measured. The retention trial was performed for 4 hr after the acquisition trial. For the retention trial, one familiar object (A3) used for the acquisition trial and one novel object (B) having a different shape from A3 were placed in the test box. After setting the objects, the rats were introduced into the test box and retention trial was performed for 3 min. The duration for exploring each object in the acquisition trial and the retention trial was measured, and the exploration rate of novel object was calculated. The exploration rate of novel object was expressed as (the duration exploring the novel object)/[(the duration exploring the novel object)+(the duration exploring the familiar object)]×100(%) at mean±standard error.

The next assay has as its system IP1 production. In words: Measurement of myo-inositol 1 phosphate (IP1) in hippocampi after oral administration. The class given is in vivo, male Long-Evans rats. The note with it: rat hippocampus, relative to Vehicle administration group as 100%. The protocol:
Measurement of Myo-Inositol 1 Phosphate (IP1)
Animals used were male Long-Evans rats. They were used after acclimation for at least 1 week. Test compounds were suspended in 0.5% (w/v) aqueous methylcellulose solution, and the suspension was orally administered to the rats. After a given time, lithium chloride was dissolved in saline and subcutaneously administered into the rats. After a given time, their bilateral hippocampi were isolated from the rats, and the wet weight thereof was measured. The isolated hippocampi were homogenized with HEPES buffer, followed by centrifugation. The IP1 and protein concentrations in the supernatant were measured by IP-One HTRF(R) assay kit (Cisbio Bioassays) and BCA protein assay kit (Thermo Scientific), respectively. The level of the IP1 production was expressed as the ratio of the concentration of IP1 to that of protein. The increase rate of the IP1 production was shown as a relative value when Vehicle administration group as 100%.

With `Cc1cnc(C(=O)N[C@H]2CCC[C@@H]2O)cc1Cc1ccc(-c2ccn(C)n2)cc1` [Example 1, N-((1S,2S)-2-hydroxycyclopentyl)-5-methyl-4-(4-(1-methyl-1H-pyrazol-3-yl)benzyl)pyridine-2-carboxamide], in assay [1], the “activity (%) at 10 μM” value came to 86%. Moreover, the “exploration rate of novel object (%)” value in assay [2] (10 mg/kg oral, control group 69.26±2.87%, solvent-scopolamine group 55.27±3.48%) came to 64.59±2.59%. In addition, in the assay on IP1 production (10 mg/kg), the “increase rate (%) of the IP1 production” value was found to be 38%.

Regarding `Cc1nc(C(=O)N[C@H]2CCC[C@@H]2O)cc(Cc2ccc(-c3ccn(C)n3)cc2)c1C` [Example 72, N-((1S,2S)-2-hydroxycyclopentyl)-5,6-dimethyl-4-(4-(1-methyl-1H-pyrazol-3-yl)benzyl)pyridine-2-carboxamide], the “activity (%) at 10 μM” value in assay [1] worked out at 105%. In assay [2] (3 mg/kg oral, control group 66.74±3.01%, solvent-scopolamine group 47.48±3.66%), the “exploration rate of novel object (%)” value is 53.16±2.80%. The “increase rate (%) of the IP1 production” value with IP1 production (10 mg/kg) amounted to 70%.

For the compound `Cc1nc(C(=O)N[C@H]2CCCC[C@@H]2O)cc(Cc2ccc(-c3ccn(C)n3)nc2)c1C` [Example 74, N-((1S,2S)-2-hydroxycyclohexyl)-5,6-dimethyl-4-((6-(1-methyl-1H-pyrazol-3-yl)pyridin-3-yl)methyl)pyridine-2-carboxamide], the “activity (%) at 10 μM” value in assay [1] is 103%. In addition, the “exploration rate of novel object (%)” value in assay [2] (10 mg/kg oral, control group 66.74±3.01%, solvent-scopolamine group 47.48±3.66%) turned out to be 55.14±1.48%. The “increase rate (%) of the IP1 production” value in the assay with IP1 production (3 mg/kg) was 22%.
